Laboratory results as given in patent publication US8962530B2, “Inflammatory bowel disease therapies” (Regents of the University of Colorado, priority 2007, dated 2015).

Assays:
TNBS-induced colitis [1] = experiment: Histological analysis of colon sections in TNBS-colitis model; type: in vivo; conditions: TNBS-colitis mice; 40 mg/kg i.p. on day minus 1, day 0, day 1; day three; compared to vehicle-control treated TNBS-colitis animals
Source text: The effectiveness of compounds and methods of the present invention on intestinal barrier protection and treatment of inflammatory bowel disease (IBD) in TNBS (2,4,6-trinitrobenzene sulfonic acid)-induced colitis, an established animal model of inflammatory bowel disease, was examined. TNBS-induced colitis was induced in mice using a modification of techniques previously described. (See Morris et al (1989) Gastroenterology 96:795-803; Boirivant et al (1998) J Exp Med 188:1929-1939; Karhausen et al (2004) J Clin Invest 114:1098-1106.) Mice were shaved on the abdomen (causing total depletion of hair and microlesions) and were then sensitized to subsequent treatment by epicutaneous application of 1% TNBS (Sigma-Aldrich) in 100% ethanol on day minus 7. Seven days later, on day 0, animals were sedated with a 2.5% Tribromoethanol solution in phosphate-buffered saline (14 μl/g body weight), followed by intrarectal administration of a 2.5% TNBS solution in 50% ethanol (5 μl/g body weight). Administration of the 2.5% TNBS solution was carried out using an epidural catheter ([…] Plus Epidural Catheter, Arrow International), which was inserted approximately 6 cm ab ano followed by release of the TNBS solution. To ensure the continuance of the TNBS solution in the colon, mice were suspended in a vertical position for at least 5 minutes following administration. Vehicle control animals received a corresponding volume of 50% ethanol solution alone. Unless otherwise indicated, compounds of the invention were administered to animals intraperitoneally (i.p.) as a solution. Animals were dosed with compound (40 mg/kg/day or 20 mg/kg/day) on day minus 1, day 0, and day 1, or exclusively on day 0 and day 1, by i.p. injection. On day 0, TNBS treatment was performed on animals 4 hours after injection of compound. The effect of methods and compounds of the present invention on structural changes of the colon associated with inflammatory bowel disease was studied using an established animal model of inflammatory bowel disease (described above in Example 1). […]

TNBS-induced colitis [2] = experiment: Intestinal permeability, Texas Red labeled LPS, TNBS-colitis model; type: in vivo; conditions: TNBS-colitis mice; 60 mg/kg i.p.; labeled LPS gavage after 20 hours, serum four hours later; compared to vehicle control
Source text: The effectiveness of compounds and methods of the present invention on intestinal barrier protection and treatment of inflammatory bowel disease (IBD) in TNBS (2,4,6-trinitrobenzene sulfonic acid)-induced colitis, an established animal model of inflammatory bowel disease, was examined. TNBS-induced colitis was induced in mice using a modification of techniques previously described. (See Morris et al (1989) Gastroenterology 96:795-803; Boirivant et al (1998) J Exp Med 188:1929-1939; Karhausen et al (2004) J Clin Invest 114:1098-1106.) Mice were shaved on the abdomen (causing total depletion of hair and microlesions) and were then sensitized to subsequent treatment by epicutaneous application of 1% TNBS (Sigma-Aldrich) in 100% ethanol on day minus 7. Seven days later, on day 0, animals were sedated with a 2.5% Tribromoethanol solution in phosphate-buffered saline (14 μl/g body weight), followed by intrarectal administration of a 2.5% TNBS solution in 50% ethanol (5 μl/g body weight). Administration of the 2.5% TNBS solution was carried out using an epidural catheter ([…] Plus Epidural Catheter, Arrow International), which was inserted approximately 6 cm ab ano followed by release of the TNBS solution. […] Four hours later, changes in intestinal permeability were determined by measurement of serum Texas Red labeled LPS levels.

## O=C(O)CNC(=O)c1ncc2cc(Sc3ccccc3)ccc2c1O [Compound A, [(4-Hydroxy-7-phenylsulfanyl-isoquinoline-3-carbonyl)-amino]-acetic acid]
TNBS-induced colitis [1]
  inflammatory infiltrate in colon sections: reduction in inflammatory infiltrate
  tissue architecture in colon sections: overall general preservation of tissue architecture
  villous blunting in colon sections: reduction in villous blunting
TNBS-induced colitis [2]
  serum Texas Red labeled LPS levels (intestinal permeability): lower levels of serum Texas Red labeled LPS
